The values below come from publication PMC10821025, “Bioprospection of Tenellins Produced by the Entomopathogenic Fungus Beauveria neobassiana” (Journal of Fungi, 2024).

The test system of assay [1] is mouse fibroblasts (L-929). Description: Cytotoxicity assay, L929. Conditions: L929 (fibroblast), 5 days of incubation. In kind it is cell-based. On the procedure: (§1) The cytotoxicity of isolated compounds was determined as previously described over a concentration range between […] against two mammalian cell lines: mouse fibroblasts (L-929) and human endocervical adenocarcinoma (KB-3.1). […] Following 5 days of incubation, we determined the minimum concentration of the tested compounds required to achieve 50% growth inhibition, expressed as IC50 values.

The subject of assay [2] is human endocervical adenocarcinoma (KB-3.1). The experiment in a line: Cytotoxicity assay, KB3.1. It is filed as cell-based. Particulars: KB3.1 (endocervical adenocarcinoma), 5 days of incubation. On the procedure: as §1
The test system of assay [3] is Acinetobacter baumanii [DSM 30008]. Description: Serial dilution assay (MIC). Particulars: Acinetobacter baumannii, DSM30008. It is filed as cell-based. On the procedure: (§2) All isolated compounds were assessed for their antimicrobial activity using a serial dilution assay over a concentration range from 67 to 0.5 µg/mL following the previously described protocols. In brief, the antimicrobial activity of all isolated metabolites was assessed by determining their minimum inhibitory concentration (MIC) against a range of different pathogens, including five fungal species: Candida albicans [DSM 1665], Mucor hiemalis [DSM 2656], Schizosaccharomyces pombe [DSM 70572], Rhodotorula glutinis [DSM 10134], and Wickerhamomyces anomalus [DSM 6766], as well as various Gram-positive: Staphylococcus aureus [DSM 346], Bacillus subtilis [DSM 10], Mycolicibacterium smegmatis [ATCC 700084], and Gram-negative bacteria: Acinetobacter baumanii [DSM 30008], Escherichia coli [DSM 1116], Chromobacterium violaceum [DSM 30191], and Pseudomonas aeruginosa [PA14]. In our experiments, gentamicin served as the positive control against most bacteria, while nystatin acted as the positive control against all fungi. For specific microorganisms, namely A. baumannii, B. subtilis, and M. smegmatis, ciprofloxacin, oxytetracycline, and kanamycin were used as positive controls, respectively.

Assay [4] relates to Bacillus subtilis [DSM 10]. Description: Serial dilution assay (MIC). In kind it is cell-based. Conditions: DSM10, read-out: MIC. On the procedure: as §2
Assay [5] deals with Candida albicans [DSM 1665]. The experiment in a line: Serial dilution assay (MIC). In kind it is cell-based. Conditions: DSM1665, read-out: MIC. The procedure:
as §2

Assay [6] has as its system Chromobacterium violaceum [DSM 30191]. The experiment in a line: Serial dilution assay (MIC). It is filed as cell-based. Conditions: DSM30191, read-out: MIC. The procedure: as §2
The test system of assay [7] is Escherichia coli [DSM 1116]. The experiment in a line: Serial dilution assay (MIC). It is filed as cell-based. Conditions: DSM1116, read-out: MIC. The procedure: as §2
The subject of assay [8] is Mucor hiemalis [DSM 2656]. The experiment in a line: Serial dilution assay (MIC). In kind it is cell-based. Conditions: DSM2656, read-out: MIC. On the procedure:
as §2

Assay [9] concerns Mycolicibacterium smegmatis [ATCC 700084]. Description: Serial dilution assay (MIC). Conditions: Mycolicibacterium smegmatis, ATCC700084; Mycobacterium smegmatis; read-out: MIC. In kind it is cell-based. The procedure: as §2
Assay [10] has as its system Pseudomonas aeruginosa [PA14]. The experiment in a line: Serial dilution assay (MIC). In kind it is cell-based. Particulars: read-out: MIC. On the procedure:
as §2

Assay [11] deals with Rhodotorula glutinis [DSM 10134]. Description: Serial dilution assay (MIC). Particulars: DSM10134. It is filed as cell-based. The procedure: as §2
Assay [12] concerns Schizosaccharomyces pombe [DSM 70572]. The experiment in a line: Serial dilution assay (MIC). It is filed as cell-based. Conditions: DSM70572. On the procedure:
as §2

For assay [13], the system named is Staphylococcus aureus [DSM 346]. The experiment in a line: Serial dilution assay (MIC). It is filed as cell-based. Particulars: DSM346, read-out: MIC. On the procedure:
as §2

Assay [14] has as its system Wickerhamomyces anomalus [DSM 6766]. The experiment in a line: Serial dilution assay (MIC). It is filed as cell-based. Conditions: Hansenula anomala, DSM6766. On the procedure:
as §2

Assay [15] relates to S. aureus (DSM 1104) biofilm formation. Description: Biofilm inhibition assay (Crystal Violet staining). In kind it is cell-based, Staphylococcus aureus. Particulars: for inhibitory activity on S. aureus biofilm formation (in words): 125–7.8 µg/mL; for Biofilm inhibition (% ± SD): S. aureus (DSM 1104); for Biofilm inhibition (% ± SD) / inhibition at 7.8 µg/mL: 7.8 µg/ml; for inhibition at 7.8 µg/mL / inhibition at 15.62 µg/mL / inhibition at 31.25 µg/mL / inhibition at 62.5 µg/mL / inhibition at 125 µg/mL: Staphylococcus aureus, DSM1104, S. aureus (DSM 1104), read-out: Biofilm inhibition (% ± SD). The procedure: The compounds were evaluated for their ability to inhibit S. aureus (DSM 1104) biofilm formation, following the established procedure. Briefly, serially diluted compounds (125–7.8 µg/mL) were co-incubated with S. aureus in 96-well plates in CASO medium supplemented with 4% of glucose (see Supplementary Materials). Biofilm inhibition was assessed by using Crystal Violet staining after […], with microporenic acid A serving as a positive control and methanol as solvent control.
Biofilm inhibition assays were condu cted acco rding to th e methodolo g y previousl y described (Soliga et al., 2021), targeting the inhibition of biofilm formation in Staphylococcus aureus […]
S. aureus were cultured i n LB and CASO medium at 37 °C for 18 h, respect ivel y, in a shaker at 120 rpm after being thawed from a -20 °C stock solution. The culture's optical densit y at 600 nm (OD600) was measured and adjusted to a 0.1 McFarland standard in M63 minimal medium supplemented with necessar y nutrients and CASO medi um with 4% glucose for S. aureus, respectively. Microtiter plates were loaded with 150 µL of the bacterial suspension containing s eriall y diluted test compounds (7.8 -125 µg/m L) and incubated for 24 h at 37 °C. The evaluation of biofilm inhibition was performed by staining the biofilm with 0.1% cr ystal violet (CV). After staining, the plates were washed, and the biofilm dissolved in 95% ethanol. The absorbance of the dissolved biofilm was measured at 530 nm using a plat e reader. Negative control involved methanol (2.5%) while microporenic acid A at a concentration range of 7.8 to 125 µg/mL were used as the positive control for S. aureus (Chepkirui et al., 2018). All experiments were performed three times, and the standard deviation (SD) was maintained at or below 15% for S. aureus .
Differences between sam ples and the control grou p were determined b y a t wo-tailed Student’s t-test. Statistical significan ce was defined as p < 0.01. Anal ysis was carri ed out using GraphPad Prism 9® (GraphPad Software, San Diego, CA, USA). […]

Assay [16] relates to lung cancer (A-549) cell line. The experiment in a line: Cytotoxicity assay, A549. In kind it is cell-based. Conditions: Homo sapiens, 120 h; A549 (lung), 5 days of incubation; read-out: IC50.
Assay [17] has as its system breast cancer (MCF-7) cell line. The experiment in a line: Cytotoxicity assay, MCF-7. It is filed as cell-based. Particulars: Homo sapiens, MCF7, 120 h; MCF-7 (breast), 5 days of incubation; read-out: IC50.
The next assay relates to S. aureus. Further details: method as in doi:10.1016/j.phytol.2021.03.003. Conditions: cited from earlier work.
The next assay concerns Curvularia lunata. Set-up: method as in doi:10.1016/j.phytol.2021.03.003. Particulars: cited from earlier work.

Converted amounts (≈) assume the structure as drawn.

One may read the IC50 as the concentration that inhibits the measured activity by half. A word on the MIC: it is the least concentration at which growth counts as inhibited. The term inhibition denotes the share of the control response that was lost under treatment. Regarding `CCC(C)/C=C(C)/C=C/C(=O)C1=C(O)[C@H]([C@H](O)c2ccc(O)cc2)NC1=O` (stereo partly shown) [Compound 2, Prototenellin D], the “IC50 (µM)” value in assay [1] and in [2] was “weak or no activity” throughout. Further, the IC50 was 70.1 µM in assay [1] (Mus musculus, L929, 120 h) and 64.7 µM in [2] (Homo sapiens, KB 3-1, 120 h). Moreover, the MIC in assay [3], in assay [4], in assay [5], in assay [6], in assay [7] and in [8] was greater than 67 µg/mL in each case. Also, the MIC in [9], in assay [10], in assay [11], in assay [12], in assay [13] and in assay [14] was greater than 67 µg/mL in each case. The “inhibitory activity on S. aureus biofilm formation (in words)” value in assay [15] is “promising activities in a dose-dependent manner”. For the same compound, the “Biofilm inhibition (% ± SD)” value in assay [15] (listed as prototenellin D (2)) is “more than 50%”. Also, the inhibition at 7.8 µg/mL in assay [15] was found to be 53 ± 7%. For the same compound, in assay [15], the inhibition at 15.62 µg/mL was 56 ± 8%. The inhibition at 31.25 µg/mL in assay [15] was found to be 80 ± 10%. The inhibition at 62.5 µg/mL in assay [15] was 83 ± 9%. Also, the inhibition at 125 µg/mL in assay [15] was 84 ± 17%.

Take `CCC(/C=C(C)/C=C/C(=O)c1c(O)c(-c2ccc(O)cc2)cn(O)c1=O)CO` (stereo not shown) [Compound 5, 15-Hydroxytenellin]: the IC50 is 6.8 µM in assay [1]; 4.9 to 6.8 µM in [1] (Mus musculus, L929, 120 h); 4.9 to 6.8 µM in assay [2] (Homo sapiens, KB 3-1, 120 h); 6 µM in assay [2]; 2.6 µM in [16]; 8.1 µM in assay [17]. In addition, the MIC in assay [3] is greater than 67 µg/mL; in assay [4], 66.6 µg/mL (≈ 173 µM); in [5], greater than 67 µg/mL; in assay [6], greater than 67 µg/mL; in assay [7], greater than 67 µg/mL; in [8] it was greater than 67 µg/mL. Moreover, the MIC in [9] was greater than 67 µg/mL; in assay [10] it was greater than 67 µg/mL; in assay [11], greater than 67 µg/mL; in assay [12], greater than 67 µg/mL; in assay [13] it was 66.6 µg/mL (≈ 173 µM); in assay [14] it was greater than 67 µg/mL. In assay [15], the inhibition at 15.62 µg/mL came out at 47 ± 12%. Further, the inhibition at 31.25 µg/mL in assay [15] stood at 78 ± 5%. Further, the inhibition at 62.5 µg/mL in assay [15] was 85 ± 2%. Moreover, the inhibition at 125 µg/mL in [15] worked out at 86 ± 1%.

`CCC(C)/C=C(C)/C=C/C(=O)c1c(O)c(-c2ccc(O)cc2)cn(O)c1=O` (stereo not shown) [Compound 4, Tenellin]: the IC50 in assay [1] (Mus musculus, L929, 120 h) was determined as 0.79 µM; in [2] (Homo sapiens, KB 3-1, 120 h), 0.79 µM; in [16], 0.24 µM; in assay [17], 2 µM. Also, the MIC in assay [3] was greater than 67 µg/mL; in assay [4] it was 8.3 µg/mL (≈ 22.5 µM); in assay [5], 66.6 µg/mL (≈ 180 µM); in assay [6], greater than 67 µg/mL; in assay [7], greater than 67 µg/mL; in assay [8], 66.6 µg/mL (≈ 180 µM). Also, the MIC in assay [9] was greater than 67 µg/mL; in [10] it was greater than 67 µg/mL; in assay [11], greater than 67 µg/mL; in [12] it was greater than 67 µg/mL; in [13] it was 16.6 µg/mL (≈ 44.9 µM); in [14] it was greater than 67 µg/mL. Moreover, the values for the MIC in the assay with S. aureus and in the assay with Curvularia lunata were 6.25 µg/mL (≈ 16.9 µM) and 3.13 µg/mL (≈ 8.47 µM), respectively. Also, in assay [15], the “inhibitory activity on S. aureus biofilm formation (in words)” value was “promising activities in a dose-dependent manner”. The “Biofilm inhibition (% ± SD)” value in assay [15] (listed as tenellin (4)) is “ca. 30%”. For the same compound, in assay [15], the inhibition at 7.8 µg/mL was 36 ± 13%. The inhibition at 15.62 µg/mL in assay [15] was determined as 51 ± 19%. For the same compound, the inhibition at 31.25 µg/mL in [15] was found to be 73 ± 15%. Moreover, the inhibition at 62.5 µg/mL in [15] is 80 ± 4%. In addition, the inhibition at 125 µg/mL in assay [15] stood at 78 ± 5%.
